Assay results taken from PubChem BioAssay (NCI).
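Five compound concentrations were applied to cells in 96-well plates for 48 hours; endpoints were derived by simple linear interpolation of the resulting dose-response curve. GI50 marks 50% less growth. At the TGI there is no net growth.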

Assays:
Assay in all cases: growth of human tumour cells (NCI), 48 h
[1] = system: UACC-62 melanoma
[2] = system: MCF7 breast
[3] = system: DU-145 prostate
[4] = system: IGROV1 ovarian
[5] = system: PC-3 prostate
[6] = system: MDA-MB-435

Compound | GI50 [1] [µM] | TGI [1] [µM] | GI50 [2] [µM] | TGI [2] [µM] | GI50 [3] [µM] | TGI [3] [µM] | GI50 [4] [µM] | TGI [4] [µM] | GI50 [5] [µM] | TGI [5] [µM] | GI50 [6] [µM] | TGI [6] [µM]
COc1ccc(C2=CSc3cc(Cl)c(C)cc3S(=O)(=O)N2C(C)=O)cc1 | 13.1 | 48 | 46.2 | > 100 | 38.4 | > 100 | 36.2 | > 100 | 21.8 | 82.1 | 28.6 | 87.8
Cn1ccnc1C(=O)/C=C/c1ccc(CC(=O)Nc2ccc(Br)cc2)cc1 | 2.8 | 5.73 | 1.84 | > 16.7 | 3.93 | 12.2 | 2.97 | 10.6 | 2.87 | 8.25 | 4.37 | 14.8
NC(CSC(c1ccccc1)(c1ccccc1)c1ccc2c(c1)OCO2)C(=O)O (stereo not drawn) | 0.57 | > 62.9 | 0.298 | 40.2 | 2.33 | 6.88 | 2.5 | > 100 | 0.521 | > 69.6 | – | –
Cc1cc(=O)n2[nH]c(-c3ccc(C(C)(C)C)cc3)cc2n1 | 3.83 | > 100 | 7.43 | > 100 | 11.4 | 75.9 | 7.36 | > 100 | 4.13 | 40.6 | 5.44 | > 100
O=c1n(CC2CO2)c(=O)n(CC2CO2)n1CC1CO1 (stereo not drawn) | 6.51 | > 64.1 | 3.68 | > 100 | 3.58 | > 61.3 | 13.2 | 41.1 | 29.2 | > 100 | 34.7 | > 100
Nc1cc2nc3ccccc3sc-2cc1=O | 1.55 | 3.33 | 2.38 | 9.63 | 1.77 | 3.25 | 3.02 | 13.1 | 1.51 | 21.8 | 1.76 | 3.26
CCCCCCCC(=O)SCC/C=C/[C@@H]1CC(=O)NCc2cccc(n2)C2=N[C@@](C)(CS2)C(=O)N[C@@H](C(C)C)C(=O)N1 | 0.192 | 4.88 | 0.623 | > 33.3 | 0.3 | > 33.3 | 0.224 | 15.2 | 0.657 | > 33.3 | 0.739 | > 33.3
Fc1ccc(Nc2ncnc3ccc(-c4cnc5[nH]ccc5c4)cc23)cc1Cl | 6.06 | 63.3 | 0.335 | > 38 | 4.58 | > 93.3 | 0.45 | 3.41 | 3.54 | 27.3 | 8.66 | > 80.1
COc1c2ccoc2c(/C=C/C=O)c2oc(-c3ccccc3)cc(=O)c12 | 5.45 | 22.7 | 2.72 | 58.3 | 10.7 | > 100 | 17.5 | > 100 | 3.23 | > 100 | 4.83 | > 100
COC(=O)Nc1nc2ccc(S(=O)c3ccccc3)cc2[nH]1 (stereo not drawn) | 4.44 | > 100 | 3.12 | > 100 | 31 | > 100 | 7.51 | > 100 | 6.75 | > 100 | 1.26 | 3.94
CC(C)c1ccc(C(C)C(=O)N(CC2=C(C(C)c3ccccn3)c3ccccc3C2)C(C)C)cc1 (stereo not drawn) | 8.79 | 37.6 | 3.23 | 11.4 | 5.29 | 18 | 2.77 | 31.3 | 2.66 | > 100 | 3.73 | 55.6
CC1=C(C#N)C23C(=O)c4ccccc4C(O)=C2C(=O)C=CC3(O)N1Cc1ccccc1 (stereo not drawn) | 47.4 | > 100 | 41.6 | > 100 | 35.1 | > 100 | 23.9 | 72.4 | 47 | > 100 | 38.6 | > 100
CC1=C(C(=O)Nc2ccc(F)c(Cl)c2)C(c2ccc(Cl)cc2)NC(=O)N1 (stereo not drawn) | 14.1 | 27.2 | 18.4 | 44.9 | 15.6 | 37 | 12.6 | 31.9 | 15.1 | 31.9 | 22.8 | 56.4
CCCCCCCCSC1=CC(=O)c2nc3ccccc3c3ccnc1c23 | 42 | > 100 | 20.2 | 57.4 | > 100 | > 100 | > 100 | > 100 | 77.9 | > 100 | 41.7 | > 100
O=C(NCCNc1nccc(-c2c(-c3cccc(O)c3)nc3sccn23)n1)c1ccccc1O | 0.181 | 4.91 | 3.27 | 19.9 | 5.23 | 35.5 | 4.52 | > 73 | 4.36 | 55.1 | 0.491 | 12.1
C=C(CNCCO)[C@@H]1CC[C@]2(CO)CC[C@]3(C)[C@H](CC[C@@H]4[C@@]5(C)CCC(N)C(C)(C)[C@@H]5CC[C@]43C)[C@@H]12 (stereo partly drawn) | 1.8 | 3.36 | 1.77 | 3.57 | 5.1 | 16.6 | 6.05 | 20.8 | 2.36 | 11.2 | 1.72 | 3.3
Cc1ccc(-c2nnc(-c3ccc4ccccc4c3)o2)cc1 | – | > 85.6 | – | > 100 | – | > 100 | – | > 100 | – | > 100 | – | > 100
O=C(Nc1ccc(I)cc1)c1cc([N+](=O)[O-])ccc1O | 3.38 | 14.1 | 3.93 | > 100 | 17 | > 100 | 13.8 | > 100 | 3.42 | 23.4 | 6.91 | > 100
